Where two headings read alike, the source gives them in different places.
Assays:
[1] = Partition coefficient (log P butanol/buffer); assay type: physicochemical; details: 1-butanol / 50 mM Tris-HCl, pH 7.4, room temperature
[2] = reference compounds, 1.5 T, 37° C., from Rohrer et al.; cited from earlier work
[3] = reference compounds, 1.5 T, 37° C., bovine plasma instead of human plasma, from Rohrer et al.; cited from earlier work
[4] = test system: freshly isolated rat hepatocytes; assay: Uptake into freshly isolated rat hepatocytes; details: for Inhibition Rifampicine: rat hepatocyte uptake, test item and Rifampicine 1:1, each 100 μM; for Uptake rat hepatocytes: 100 μmol Gd/L, 10 min, 37° C., relative to RC1 (Gd-EOB-DTPA)
[5] = Water solubility in aqueous buffer; details: aqueous buffer 10 mM Tris-HCl, pH 7.4, 20° C.
Method: The solid compounds were added stepwise to the buffer solution. More substance is added once all the suspended material is dissolved until an equilibrium between undissolved and dissolved substance is reached. The suspension was mixed using a shaker (Heidolph Reax 2000) and treated 5 min in an ultrasound bath (Bandelin, Sonorex Super RK255H).

[6] = Complex stability (transmetallation) against Zn2+ in phosphate buffer; details: 72 hours, 2.5 mM Zn^2+, 26 mM phosphate buffer, 37° C., pH 7.4
Excerpt: If test compounds are instable under these conditions, transmetallation during this test would lead to the formation of the Zn^2+ complex of the test item, while Gd^3+ is released and precipitated as highly insoluble GdPO4.

[7] = Relaxivity measurements at 1.41 T in water; assay type: physicochemical; details: 37° C., normalized to Gd
In short: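 T1 by inversion recovery and T2 by CPMG at 1.41 T (60 MHz), 37° C, relaxation delay ≥5×T1. Three Gd concentrations between 0.05 and 2 mM; relaxivities derived from measured relaxation rates in water.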

[8] = Relaxivity measurements at 1.41 T in human plasma; assay type: physicochemical; details: 37° C., normalized to Gd
In short: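 T1 determined by inversion recovery (8 inversion-time steps) and T2 by CPMG sequence, both with relaxation delay ≥5×T1. Each relaxivity used three Gd concentrations between 0.05 and 2 mM. Relaxivities were derived from relaxation rates measured in water and plasma.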

[9] = target: T1, OATP1B1 (Homo sapiens, UniProt Q9Y6L6); assay: Uptake into stable transfected OATP1B1 HEK 293 cells; assay type: cell-based; details: for Uptake into OATP1B1-HEK 293 cells: 40 min incubation, relative to RC1 (Gd-EOB-DTPA); for Inhibition Rifampicine: uptake into OATP1B1-HEK 293 cells
T1 sequence (Q9Y6L6 1-691): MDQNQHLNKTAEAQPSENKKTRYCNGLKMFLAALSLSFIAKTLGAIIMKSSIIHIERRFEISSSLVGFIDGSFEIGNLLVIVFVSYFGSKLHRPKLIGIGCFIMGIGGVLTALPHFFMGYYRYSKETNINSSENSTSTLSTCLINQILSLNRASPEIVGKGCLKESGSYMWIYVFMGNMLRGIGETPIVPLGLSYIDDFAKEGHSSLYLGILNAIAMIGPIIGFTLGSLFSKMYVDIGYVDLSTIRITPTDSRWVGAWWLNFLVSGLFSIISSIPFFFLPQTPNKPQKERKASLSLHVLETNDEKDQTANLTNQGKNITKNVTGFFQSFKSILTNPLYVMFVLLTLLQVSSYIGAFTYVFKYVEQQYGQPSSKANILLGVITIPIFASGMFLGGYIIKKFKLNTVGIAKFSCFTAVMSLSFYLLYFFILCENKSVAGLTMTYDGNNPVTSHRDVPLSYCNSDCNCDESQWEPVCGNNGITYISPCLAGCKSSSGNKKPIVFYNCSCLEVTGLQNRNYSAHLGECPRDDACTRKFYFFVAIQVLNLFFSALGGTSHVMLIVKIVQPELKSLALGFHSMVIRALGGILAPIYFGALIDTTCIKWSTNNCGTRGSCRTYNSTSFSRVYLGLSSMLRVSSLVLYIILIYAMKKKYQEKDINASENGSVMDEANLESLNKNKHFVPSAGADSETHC
In short: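 Stably transfected OATP1B1 HEK293 cells incubated 40 min without shaking with test item at 100 µM final in transport buffer, in triplicate. Cells then washed with cold PBS; gadoxetate run on the same plate as reference.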

[10] = target: T2, OATP1B3 (Homo sapiens, UniProt Q9NPD5); assay: Uptake into stable transfected OATP1B3 HEK 293 cells; assay type: cell-based; details: for Uptake into OATP1B3-HEK 293 cells: 40 min incubation, relative to RC1 (Gd-EOB-DTPA); for Inhibition Rifampicine: uptake into OATP1B3-HEK 293 cells
T2 sequence (Q9NPD5 1-702): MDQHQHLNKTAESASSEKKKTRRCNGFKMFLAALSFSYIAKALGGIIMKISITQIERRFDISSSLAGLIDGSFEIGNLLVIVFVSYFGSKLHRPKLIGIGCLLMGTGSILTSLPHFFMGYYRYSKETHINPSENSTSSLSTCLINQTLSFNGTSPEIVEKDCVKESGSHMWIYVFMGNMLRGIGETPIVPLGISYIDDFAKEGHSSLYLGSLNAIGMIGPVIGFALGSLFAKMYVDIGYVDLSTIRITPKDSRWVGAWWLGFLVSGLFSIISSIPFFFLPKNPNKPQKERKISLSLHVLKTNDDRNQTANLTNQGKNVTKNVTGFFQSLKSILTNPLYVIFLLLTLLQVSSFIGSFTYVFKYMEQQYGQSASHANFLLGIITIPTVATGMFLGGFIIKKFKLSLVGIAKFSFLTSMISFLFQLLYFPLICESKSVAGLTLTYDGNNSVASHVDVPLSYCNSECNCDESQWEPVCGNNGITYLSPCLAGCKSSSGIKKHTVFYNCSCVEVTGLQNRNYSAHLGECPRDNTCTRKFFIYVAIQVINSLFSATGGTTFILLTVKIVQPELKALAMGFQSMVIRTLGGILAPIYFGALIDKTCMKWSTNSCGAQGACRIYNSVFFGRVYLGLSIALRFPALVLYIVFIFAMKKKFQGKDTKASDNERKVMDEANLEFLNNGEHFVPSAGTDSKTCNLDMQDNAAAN
In short: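 HEK 293 cells stably transfected with human OATP1B3 were incubated for 40 min with test items at 100 μM final in transport buffer, in triplicate, then washed with cold PBS. Gadoxetate (Gd-EOB-DTPA) served as the reference standard on the same plate.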

[11] = of the administered dose, literature; cited from earlier work

Compound	Log P (partition coefficient butanol/buffer) [1]	r1 water [2] [L/mmol/s]	r1 plasma (r1 human plasma) [3] [L/mmol/s]	Inhibition Rifampicine [4] [% inhibition]	Solubility [5] [mM]	Transmetallation stability [6] [%]	r1 water [7] [L/mmol/s]	r1 human plasma [8] [L/mmol/s]	Uptake into OATP1B1-HEK 293 cells [9]	Inhibition Rifampicine [9] [% inhibition]	Uptake into OATP1B3-HEK 293 cells [10]	Inhibition Rifampicine [10] [% inhibition]	Uptake rat hepatocytes [4]	Secreted / excreted into the bile [11]
O=C([O-])CN1CCN(CC(=O)[O-])CCN([C@H](CO)[C@H](O)CO)CCN(CC(=O)[O-])CC1.[Gd+3] (racemic) [RC3, gadobutrol, reference compound]	−2.22	3.3	5.2	0										
COCC(C(=O)O)N1CCN(CC(=O)[O-])CCN(C(Cc2ccc(OCC(F)(F)C(F)F)cc2)C(=O)[O-])CCN(CC(=O)[O-])CC1.[Gd+3] (centres unmarked) [Example 45, gadolinium-2-{4,10-bis(carboxylatomethyl)-7-[1-carboxy-2-methoxyethyl]-1,4,7,10-tetraazacyclododecan-1-yl}-3-[4-(2,2,3,3-tetrafluoropropoxy)phenyl]propanoate]	−0.36			82	>63	100	4.5	11.4	492 % of RC1	95	106 % of RC1	98	68 % of RC1	
O=C([O-])CN1CCN(CC(=O)[O-])CCN(C(Cc2ccc(OCC(F)(F)C(F)F)cc2)C(=O)O)CCN(CC(=O)[O-])CC1.[Gd+3] (centres unmarked) [Example 46, gadolinium 2,2′,2″-(10-{1-carboxy-2-[4-(2,2,3,3-tetrafluoropropoxy)phenyl]ethyl}-1,4,7,10-tetraazacyclododecane-1,4,7-triyl)triacetate]	−0.57			90	>263	101	3.5	10.8	356 % of RC1	95	43 % of RC1	97	106 % of RC1	
O=C([O-])CN(CCN(CC(=O)[O-])CC(=O)[O-])CCN(CC(=O)[O-])C(COCc1ccccc1)C(=O)[O-].[Gd+3].[H+].[H+] (centres unmarked) [Gd-BOPTA, gadobenic acid]														3-to-5%
CCOc1ccc(C[C@@H](CN(CCN(CC(=O)[O-])CC(=O)[O-])CC(=O)[O-])N(CC(=O)[O-])CC(=O)[O-])cc1.[Gd+3].[H+].[H+] [Gd-EOB-DTPA, gadoxetic acid]														up to 50%
O=C([O-])CN(CCN(CC(=O)[O-])CC(=O)[O-])CCN(CC(=O)[O-])C(COCc1ccccc1)C(=O)[O-].[Gd+3].[H+].[H+] (centres unmarked) [RC2, gadobenic acid, reference compound]	−2.07	3.3	4.1	79		14			31 % of RC1	61	4 % of RC1	87	9 % of RC1	
